Test results taken from patent US12448393B2, “Use of novel compound, for preventing, improving or treating amyotrophic lateral sclerosis” (PRG S&TECH INC., priority 2019, dated 2025).
“Also recorded” adds a separate entry of the source.

How the values were obtained:
SOD1 [1] = molecular target: SOD1 (Homo sapiens, UniProt P00441); assay: Western blot / native gel analysis of SOD1 aggregation; assay type: cell-based
Description: (§1) Using RIPA buffer (50 mM Tris-Cl, pH 7.5, 150 mM NaCl, 1% NP-40, 0.1% SDS and […]) for SDS-PAGE and lysis buffer (50 mM Tris-Cl, pH 7.5, 150 mM NaCl, 0.3% NP-40) for Native-PAGE, proteins were extracted from cells. Samples were separated by the SDS-PAGE or the Native-PAGE and transferred to PVDF membrane. Blotted membrane was blocked with TBST buffer including 3% skim milk for 1 hour, and reacted with specific antibodies. The reacted antibodies were detected by ECL and X-ray film exposure. Antibodies used in the present disclosure are as follows: pan-SOD1 (GTX100554) was purchased from Genetex (California, USA). Misfolded SOD1-specific antibody (B8H10) was purchased from MediMabs (Montreal, Canada). Actin (sc-1616), GST (sc-138), and GFP (Green fluorescent protein; sc-8036) were purchased from Santa Cruz biotechnology (Santa Cruz, CA, USA). TDP-43 antibody (10782-2-AP) was purchased from Proteintech (Rosemont, IL, USA). Anti-FLAG (Sigma; F3165) was purchased from Sigma Aldrich (St, Louis, Mo, USA), and HRP-conjugated goat anti-mouse, goat anti-rabbit, and mouse anti-goat antibodies (Pierce, Thermo Fisher Scientific, Inc., Rockford, IL, USA) were used as secondary antibodies.
(§2) GFP-SOD1 (WT, G85R, G93A), non-tagged SOD1 (WT, A4V, G37R, G85R, G93A) and tdTomato-TDP43 expression vectors were purchased from Addgene (Cambridge, MA, USA). Transfection was performed using Jet-PEI reagent (JetPEI; Polyplus transfection, New York, NY, USA) according to the manufacturer's protocol. Briefly, vectors were mixed with JetPEI reagent in 150 mM NaCl buffer, and then mixture was reacted for 15 minutes. The mixture was added to cells in serum-free medium and reacted for 4 hours. After reaction, the cells were replaced with a culture medium supplemented with 10% FBS.

SOD1 [2] = assay: as above; assay type: cell-based, human; conditions: for mutant SOD1 aggregation: FIGS. 3B and 3C
Description: as §1, §2

SOD1-G93A = molecular target: T1, SOD1-G93A (Homo sapiens, UniProt P00441, G94A); assay: Dot blot analysis of recombinant SOD1 reacted with compound; assay type: biochemical; conditions: FIG. 5F
T1 construct: GST (TEV site) (N); made in house; host or cells: Escherichia coli BL21 (DE3)
T1 sequence (P00441 whole entry G94A): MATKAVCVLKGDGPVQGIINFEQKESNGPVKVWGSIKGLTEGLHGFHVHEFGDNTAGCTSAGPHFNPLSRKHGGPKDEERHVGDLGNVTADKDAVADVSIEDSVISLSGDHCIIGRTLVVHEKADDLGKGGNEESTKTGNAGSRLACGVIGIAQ
Description: To prepare recombinant proteins, human SOD1 (WT, A4V, G37R, G85R, G93A) was added to EcoRI and HindIII sites of pGEX-TEV vector, an improved vector made by adding a TEV protease cleavage site to pGEX-4T1 (Invitrogen). The recombinant proteins were expressed as GST-fusion proteins in Escherichia coli (E. coli) strain BL21 (DE3). The proteins were purified by glutathione-affinity chromatography.
To detect misfolded SOD1 expression, cells transfected with SOD1 vector were treated with the compounds for 24 hours. After reaction, the cells were lysed with a lysis buffer without surfactant, and then cell lysate was fixed on a nitrocellulose membrane using a Bio-Dot SF Microfiltration apparatus (Bio-Rad Laboratories, Hercules, CA). In the case of peptide reaction, SOD1 recombinant proteins were reacted with the compounds for 1 hour, and then samples were loaded onto membrane. Each membrane was washed with TBS and blocked with 3% skim milk to prevent non specific reaction. After blocking, the membrane was reacted with the misfolded SOD1 or Actin antibody (1:8,000 in TBST including 1% skim milk) for 30 minutes, and then with a secondary antibody (goat anti-mouse IgG-horseradish peroxidase, 1:50,000 in 1% skim milk blocking buffer) for 30 minutes. Antibodies reacted to proteins were detected by ECL and X-ray film exposure. Actin was used as a loading control.

SOD1^G93A-Tg mice [3] = assay: In vivo drug treatment of ALS model mice (grip strength, behaviour, histology, survival); parameters: species or system mouse; conditions: dosing from 14 weeks, observed at 17-weeks of age; FIGS. 7C and 8C
SOD1^G93A-Tg mice [4] = assay: as above; parameters: species or system mouse
Description: An experiment was performed in a facility approved by the Association for Laboratory Animal Care Assessment and Accreditation in accordance with the animal policy approved by Busan National University. B6SJL-Tg (SOD1^G93A) mice were purchased from Jackson Laboratory (Stock No: 002726). All mice were maintained under temperature and light-controlled conditions (20˜23° C., light-dark cycle 12 hr-12 hr) and were provided with sterile food and water.
Vehicle (DMSO) and SLC-B036 (10 mg/kg, 20 mg/kg) were administered to 12-week-old or 14-week-old SOD1^G93A mice via intraperitoneal injection twice weekly for 6 weeks. Control mice were treated under the same conditions. For histological analysis, mice were sacrificed at 18 weeks. After dissection of mice, spinal cord was fixed with 4% paraformaldehyde for 48 hours according to basic tissue processing procedures, and embedded in a paraffin block. An embedded tissue (cervical region of the spinal cord) was cut into 5 μm with a Leica microtome, and transferred to an adhesive-coated slide (Marienfeld laboratory glassware, Germany). After deparaffinization and rehydration, the slide was stained with hematoxylin and eosin to determine the number of spinal nerves.
For behavioral experiment, grip strength was checked every 2 weeks using a grip strength meter. The mice were allowed to grasp a tension bar with their forelimbs, and then their tails were slowly pulled until they released the bar. To observe motility, respiration, and quadriplegia of the mice, image analysis was performed at the end of administration (18-20 weeks).

SOD1 (Homo sapiens, UniProt P00441), sequence (P00441 2-154): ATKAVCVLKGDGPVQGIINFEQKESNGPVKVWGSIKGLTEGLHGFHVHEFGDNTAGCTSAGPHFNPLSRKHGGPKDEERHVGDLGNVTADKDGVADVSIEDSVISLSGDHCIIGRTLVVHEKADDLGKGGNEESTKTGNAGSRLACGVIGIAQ

## COc1cc(/C=C/C(=O)O[C@H]2Cc3cc4ccc(=O)oc4cc3OC2(C)C)ccc1O [PRG-A-01, (S)-8,8-dimethyl-2-oxo-7,8-dihydro-2H,6H-pyrano[3,2-g]chromen-7-yl (E)-3-(4-hydroxy-3-methoxyphenyl) acrylate]
SOD1 [1]; TDP-43 overexpression, FIG. 5B
  SOD1 aggregation and TDP43 aggregation, native gel analysis: reduced; also recorded: decreased
SOD1 [1]; glutaraldehyde cross-linking, FIG. 5C
  multimer bands of SOD1 and TDP-43, cross-linking experiment: blocks multimer formation of SOD1; also recorded: weakened
SOD1 [2]
  mutant SOD1 aggregation: inhibits SOD1 aggregation
SOD1 [2]; listed as SLC-B036
  mutant SOD1 aggregation: blocking mutant SOD1 aggregation in a dose-dependent manner
SOD1 [2]; Table 1, effect on SOD1 aggregation, native / non-SDS-PAGE gel
  Western Blot: Effect ○
SOD1-G93A
  recognition of mutant SOD1 by misfolding-specific antibody: inhibits misfolding of mutant SOD1; also recorded: antibody specific for misfolding did not recognize mutant SOD1
SOD1^G93A-Tg mice [3]
  motor capacity, behavioral observation: still had motor capacity
SOD1^G93A-Tg mice [4]; 20 mg/kg more effective than 10 mg/kg, FIGS. 8A and 8B
  dose dependence of effect on grip strength: dose-dependent effect
SOD1^G93A-Tg mice [4]; FIGS. 11A and 11B, summary statements
  effects in ALS model mice: protective effect against muscle weakness and movement disorder
SOD1^G93A-Tg mice [4]; Kaplan-Meier survival, FIG. 8D
  lifespan extension: 10 days
SOD1^G93A-Tg mice [4]; Table 1, ALS model mice
  In vivo: Effect ○
SOD1^G93A-Tg mice [4]; i.p. twice a week, administration from 12 weeks of age, grip strength, FIG. 7B
  muscle strength compared to wild-type mice: about 70%
SOD1^G93A-Tg mice [4]; spinal cord, H&E, FIG. 7D
  viability of cervical spinal nerves, histological analysis: intraspinal nerves were maintained and high
SOD1^G93A-Tg mice [4]; starting at 14 weeks of age, forelimb grip strength, FIGS. 8A and 8B
  muscle function, late treatment: good effect on muscle function
